For 18 compounds, GI50 and TGI results are on record in PubChem BioAssay (NCI).

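Tested at 5 concentrations; 48 h exposure; 96-well plates; endpoints linearly interpolated, else capped at highest concentration. At the GI50, growth is halved. TGI marks complete inhibition of growth.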

One assay concerns NCI-H226 lung. Put plainly: inhibition of tumour cell growth, NCI panel, 48 h.
For the compound `CCc1c(Oc2ccc(C(C)=O)cc2)c2ccccc2[nH]c1=O`, the GI50 was 2.8 µM and the TGI was 43.9 µM.
The compound `Cc1nc2cccc([N+](=O)[O-])c2c(NCCCN(C)C)c1C` showed a TGI above 90.4 µM.
Turning to `CN1CCN(Cc2ccc(NC(=O)c3cncc(C#Cc4cnc(N)c5ccc(C#N)cc45)c3)cc2C(F)(F)F)CC1`, the GI50 is 0.0698 µM and the TGI is 0.864 µM.
In the case of `COc1cc(OC)cc(-c2ccc(-c3ccc(C(=N)N)o3)o2)c1`, the GI50 was 22.6 µM and the TGI was determined as 44.6 µM.
Turning to `O=C(O)Cn1ccc(=O)c2ccc([N+](=O)[O-])cc21`, the TGI was above 100 µM.
As for `O=C(c1ccco1)c1nc2ccc(C(F)(F)F)cc2[n+]([O-])c1C(F)(F)F`, the GI50 was 53.9 µM and the TGI is above 100 µM.
On to `C=C(CN1CCc2ccccc2C1)c1ccc(C(=O)Nc2cnccn2)cc1`, for which the GI50 is above 100 µM and the TGI is above 100 µM.
As for `O=C(CI)NC1Oc2ccccc2-c2oc(=O)c(-c3ccccc3)cc21` (configuration not stated), the GI50 was 3.32 µM and the TGI worked out at 29 µM.
For `O=C1c2cccc(NCCN=Cc3cc(O)ccc3O)c2C(=O)c2c(NCCN=Cc3cc(O)ccc3O)cccc21`, the GI50 was 1.21 µM and the TGI is 3.62 µM.
For the compound `O=C1NNC=Nc2ccc(cc2)S(=O)(=O)c2ccc(cc2)N=CNNC1=O`, the TGI was above 100 µM.
Consider `CC1OC(O[C@H]2C[C@@H](O)[C@]3(CO)[C@H]4[C@H](O)C[C@]5(C)[C@@H](C6=CC(=O)OC6)CC[C@]5(O)[C@@H]4CC[C@]3(O)C2)C(O)C(O)C1O` (some centres not stated), for which the GI50 is 22.7 µM and the TGI was found to be 52 µM.
Turning to `Cn1cc(-c2cnc3ccc(NC(=O)Nc4ccc(F)c(Br)c4)cc3n2)cn1`, the GI50 is 1.52 µM and the TGI is 3.64 µM.
Taken in the same sequence, the figures for `COc1cc(/C=C/c2cc(/C=C/c3ccc(O)c(OC)c3)n(-c3ccccc3)n2)ccc1O` were 0.382 µM and 1.83 µM.

A further assay deals with SF-295 CNS. In words: inhibition of tumour cell growth, NCI panel, 48 h.
As to `CCc1c(Oc2ccc(C(C)=O)cc2)c2ccccc2[nH]c1=O`, the GI50 was 16.3 µM and the TGI was above 69.4 µM.
Compound `Cc1nc2cccc([N+](=O)[O-])c2c(NCCCN(C)C)c1C` registered a TGI above 100 µM.
With `CC[CH2][Pb]([CH2]CC)([CH2]CC)[O]C(=O)C(F)(F)F`, the GI50 is 0.182 µM and the TGI was determined as 0.434 µM.
For `CN1CCN(Cc2ccc(NC(=O)c3cncc(C#Cc4cnc(N)c5ccc(C#N)cc45)c3)cc2C(F)(F)F)CC1`, in that order: 0.214 µM and 9.95 µM.
With `COc1cc(OC)cc(-c2ccc(-c3ccc(C(=N)N)o3)o2)c1`, the GI50 was 2.06 µM and the TGI came out at 4.25 µM.
`O=C(O)Cn1ccc(=O)c2ccc([N+](=O)[O-])cc21` showed a TGI above 100 µM.
As to `O=C(c1ccco1)c1nc2ccc(C(F)(F)F)cc2[n+]([O-])c1C(F)(F)F`, the GI50 is 53.2 µM and the TGI is above 100 µM.
As to `C=C(CN1CCc2ccccc2C1)c1ccc(C(=O)Nc2cnccn2)cc1`, the GI50 was 19.1 µM and the TGI was determined as 73 µM.
As to `O=C(CI)NC1Oc2ccccc2-c2oc(=O)c(-c3ccccc3)cc21` (configuration not stated), the GI50 is 1.77 µM and the TGI worked out at 3.37 µM.
For `COc1ccc2c(c1)c(-c1nc(-c3cn(C)c4ncccc34)cs1)cn2CCCN1CCCCC1`, in that order: 1.71 µM and 3.18 µM.
Turning to `O=C1c2cccc(NCCN=Cc3cc(O)ccc3O)c2C(=O)c2c(NCCN=Cc3cc(O)ccc3O)cccc21`, the GI50 was 1.36 µM and the TGI was determined as 4.24 µM.
With `CSc1cc(N=Nc2nc3ccccc3s2)c2ccccc2c1O`, the GI50 was 11.5 µM and the TGI is 27.6 µM.
`O=C1NNC=Nc2ccc(cc2)S(=O)(=O)c2ccc(cc2)N=CNNC1=O` yielded a TGI above 100 µM.
For the compound `CC1OC(O[C@H]2C[C@@H](O)[C@]3(CO)[C@H]4[C@H](O)C[C@]5(C)[C@@H](C6=CC(=O)OC6)CC[C@]5(O)[C@@H]4CC[C@]3(O)C2)C(O)C(O)C1O` (some centres not stated), the GI50 was 19.3 µM and the TGI was determined as 35.3 µM.
For `COc1cc2c3c(n(C)c(=O)c2cc1OC)-c1cc2c(cc1/C3=C\CCCN1C(=O)c3ccccc3C1=O)OCO2`, the GI50 was 3.61 µM and the TGI was above 40 µM.
For the compound `Cn1cc(-c2cnc3ccc(NC(=O)Nc4ccc(F)c(Br)c4)cc3n2)cn1`, the GI50 was 1.89 µM and the TGI amounted to 3.73 µM.
With `Cc1ccc(-c2c3c([nH]c(=O)c2C#N)-c2cc(F)ccc2OC3)cc1`, the GI50 is 23.9 µM and the TGI is 76.6 µM.

The test system of another assay is DU-145 prostate. Put plainly: inhibition of tumour cell growth, NCI panel, 48 h.
Consider `CCc1c(Oc2ccc(C(C)=O)cc2)c2ccccc2[nH]c1=O`, for which the GI50 was 25.4 µM and the TGI worked out at 73.6 µM.
`Cc1nc2cccc([N+](=O)[O-])c2c(NCCCN(C)C)c1C` came in with a TGI above 100 µM.
`CC[CH2][Pb]([CH2]CC)([CH2]CC)[O]C(=O)C(F)(F)F`: the GI50 is 0.188 µM and the TGI stood at 0.516 µM.
`CN1CCN(Cc2ccc(NC(=O)c3cncc(C#Cc4cnc(N)c5ccc(C#N)cc45)c3)cc2C(F)(F)F)CC1`: the GI50 was 0.0332 µM and the TGI was found to be 1.47 µM.
For `COc1cc(OC)cc(-c2ccc(-c3ccc(C(=N)N)o3)o2)c1`, in that order: 4.28 µM and 15.2 µM.
`O=C(O)Cn1ccc(=O)c2ccc([N+](=O)[O-])cc21` gave a TGI above 100 µM.
As to `O=C(c1ccco1)c1nc2ccc(C(F)(F)F)cc2[n+]([O-])c1C(F)(F)F`, the GI50 is 42.7 µM and the TGI was above 100 µM.
In the case of `C=C(CN1CCc2ccccc2C1)c1ccc(C(=O)Nc2cnccn2)cc1`, the GI50 is 30.1 µM and the TGI was 89.7 µM.
Consider `O=C(CI)NC1Oc2ccccc2-c2oc(=O)c(-c3ccccc3)cc21` (configuration not stated), for which the GI50 was 1.57 µM and the TGI was 2.98 µM.
As to `COc1ccc2c(c1)c(-c1nc(-c3cn(C)c4ncccc34)cs1)cn2CCCN1CCCCC1`, the GI50 was 1.62 µM and the TGI amounted to 2.98 µM.
In the case of `O=C1c2cccc(NCCN=Cc3cc(O)ccc3O)c2C(=O)c2c(NCCN=Cc3cc(O)ccc3O)cccc21`, the GI50 was 1.39 µM and the TGI amounted to 5.43 µM.
On to `CSc1cc(N=Nc2nc3ccccc3s2)c2ccccc2c1O`, for which the GI50 was 9.16 µM and the TGI came out at 16.9 µM.
As to `O=C1NNC=Nc2ccc(cc2)S(=O)(=O)c2ccc(cc2)N=CNNC1=O`, the TGI was above 100 µM.
For the compound `CC1OC(O[C@H]2C[C@@H](O)[C@]3(CO)[C@H]4[C@H](O)C[C@]5(C)[C@@H](C6=CC(=O)OC6)CC[C@]5(O)[C@@H]4CC[C@]3(O)C2)C(O)C(O)C1O` (some centres not stated), the GI50 is 19.3 µM and the TGI amounted to 34 µM.
For `COc1cc2c3c(n(C)c(=O)c2cc1OC)-c1cc2c(cc1/C3=C\CCCN1C(=O)c3ccccc3C1=O)OCO2`, the GI50 is 6.73 µM and the TGI was above 40 µM.
For `Cn1cc(-c2cnc3ccc(NC(=O)Nc4ccc(F)c(Br)c4)cc3n2)cn1`, in that order: 1.67 µM and 3.96 µM.
`COc1cc(/C=C/c2cc(/C=C/c3ccc(O)c(OC)c3)n(-c3ccccc3)n2)ccc1O`: the GI50 is 0.399 µM and the TGI was determined as 1.4 µM.
On to `Cc1ccc(-c2c3c([nH]c(=O)c2C#N)-c2cc(F)ccc2OC3)cc1`, for which the GI50 was above 100 µM and the TGI is above 100 µM.

The next assay concerns K-562 leukemia. Put plainly: inhibition of tumour cell growth, NCI panel, 48 h.
Turning to `CCc1c(Oc2ccc(C(C)=O)cc2)c2ccccc2[nH]c1=O`, the GI50 is 18.8 µM and the TGI is above 76.9 µM.
For `Cc1nc2cccc([N+](=O)[O-])c2c(NCCCN(C)C)c1C`, the TGI is above 76.9 µM.
Take `CC[CH2][Pb]([CH2]CC)([CH2]CC)[O]C(=O)C(F)(F)F`: the GI50 is 0.0918 µM and the TGI amounted to 0.552 µM.
In the case of `COc1cc(OC)cc(-c2ccc(-c3ccc(C(=N)N)o3)o2)c1`, the GI50 is 1.98 µM and the TGI stood at 4.47 µM.
As for `O=C(O)Cn1ccc(=O)c2ccc([N+](=O)[O-])cc21`, the TGI was above 100 µM.
On to `O=C(c1ccco1)c1nc2ccc(C(F)(F)F)cc2[n+]([O-])c1C(F)(F)F`, for which the GI50 was 31.3 µM and the TGI was above 100 µM.
As to `C=C(CN1CCc2ccccc2C1)c1ccc(C(=O)Nc2cnccn2)cc1`, the GI50 is 3.17 µM and the TGI was 14.7 µM.
Taken in the same sequence, the figures for `O=C(CI)NC1Oc2ccccc2-c2oc(=O)c(-c3ccccc3)cc21` (configuration not stated) were 1.32 µM and 11.9 µM.
As to `COc1ccc2c(c1)c(-c1nc(-c3cn(C)c4ncccc34)cs1)cn2CCCN1CCCCC1`, the GI50 was 1.64 µM and the TGI was 3.4 µM.
For `O=C1c2cccc(NCCN=Cc3cc(O)ccc3O)c2C(=O)c2c(NCCN=Cc3cc(O)ccc3O)cccc21`, the GI50 was 1.45 µM and the TGI is 3.9 µM.
`CSc1cc(N=Nc2nc3ccccc3s2)c2ccccc2c1O`: the GI50 was 3.6 µM and the TGI was found to be 15.2 µM.
Compound `O=C1NNC=Nc2ccc(cc2)S(=O)(=O)c2ccc(cc2)N=CNNC1=O` showed a TGI above 100 µM.
For the compound `COc1cc2c3c(n(C)c(=O)c2cc1OC)-c1cc2c(cc1/C3=C\CCCN1C(=O)c3ccccc3C1=O)OCO2`, the GI50 was 15 µM and the TGI is above 40 µM.
As for `Cc1ccc(-c2c3c([nH]c(=O)c2C#N)-c2cc(F)ccc2OC3)cc1`, the GI50 is 86.4 µM and the TGI is above 100 µM.

In the next assay the test system is NCI-H23 lung. In words: inhibition of tumour cell growth, NCI panel, 48 h.
Take `CCc1c(Oc2ccc(C(C)=O)cc2)c2ccccc2[nH]c1=O`: the GI50 was 18.7 µM and the TGI was 59.5 µM.
Compound `Cc1nc2cccc([N+](=O)[O-])c2c(NCCCN(C)C)c1C` had a TGI above 31.6 µM.
As for `CN1CCN(Cc2ccc(NC(=O)c3cncc(C#Cc4cnc(N)c5ccc(C#N)cc45)c3)cc2C(F)(F)F)CC1`, the GI50 is 0.172 µM and the TGI turned out to be 1.27 µM.
As to `COc1cc(OC)cc(-c2ccc(-c3ccc(C(=N)N)o3)o2)c1`, the GI50 is 9.25 µM and the TGI came to 22.3 µM.
Take `O=C(O)Cn1ccc(=O)c2ccc([N+](=O)[O-])cc21`: the TGI was above 100 µM.
Take `O=C(c1ccco1)c1nc2ccc(C(F)(F)F)cc2[n+]([O-])c1C(F)(F)F`: the GI50 was 46.7 µM and the TGI was above 100 µM.
For `C=C(CN1CCc2ccccc2C1)c1ccc(C(=O)Nc2cnccn2)cc1`, the GI50 is 18.4 µM and the TGI was above 100 µM.
Turning to `COc1ccc2c(c1)c(-c1nc(-c3cn(C)c4ncccc34)cs1)cn2CCCN1CCCCC1`, the GI50 is 1.81 µM and the TGI was 3.49 µM.
For the compound `O=C1c2cccc(NCCN=Cc3cc(O)ccc3O)c2C(=O)c2c(NCCN=Cc3cc(O)ccc3O)cccc21`, the GI50 was 1.44 µM and the TGI is 3.49 µM.
`CSc1cc(N=Nc2nc3ccccc3s2)c2ccccc2c1O`: the GI50 is 10.5 µM and the TGI was determined as 27.9 µM.
As for `O=C1NNC=Nc2ccc(cc2)S(=O)(=O)c2ccc(cc2)N=CNNC1=O`, the TGI is above 100 µM.
Take `CC1OC(O[C@H]2C[C@@H](O)[C@]3(CO)[C@H]4[C@H](O)C[C@]5(C)[C@@H](C6=CC(=O)OC6)CC[C@]5(O)[C@@H]4CC[C@]3(O)C2)C(O)C(O)C1O` (some centres not stated): the GI50 is 21.5 µM and the TGI worked out at 41.8 µM.
For the compound `COc1cc2c3c(n(C)c(=O)c2cc1OC)-c1cc2c(cc1/C3=C\CCCN1C(=O)c3ccccc3C1=O)OCO2`, the GI50 is above 40 µM and the TGI is above 40 µM.
Regarding `Cn1cc(-c2cnc3ccc(NC(=O)Nc4ccc(F)c(Br)c4)cc3n2)cn1`, the GI50 was 1.75 µM and the TGI is 3.91 µM.
`COc1cc(/C=C/c2cc(/C=C/c3ccc(O)c(OC)c3)n(-c3ccccc3)n2)ccc1O`: the GI50 was 0.197 µM and the TGI was determined as 2 µM.

For another assay, the system named is HOP-92 NSCLC. Put plainly: inhibition of tumour cell growth, NCI panel, 48 h.
`CCc1c(Oc2ccc(C(C)=O)cc2)c2ccccc2[nH]c1=O`: the GI50 was 1.67 µM and the TGI turned out to be 11.7 µM.
Compound `Cc1nc2cccc([N+](=O)[O-])c2c(NCCCN(C)C)c1C` yielded a TGI above 100 µM.
